Data on eight molecules can be found in patent US11440939B2, “Anticancer peptides” (IDP DISCOVERY PHARMA, S.L., priority 2017, dated 2022).

The structures appear in SMILES notation. Numbered stars: 1 amine (or outer) side, 2 acyl side, 3 side chain; on linkers, the order of the positions; unused ones are H or OH. Bridge positions count the residues as written; N and C are the ends. Square brackets hold non-standard residues; d marks the D form. Peptide text beside a SMILES is read from it. ξ: configuration not given here. ξαMeNle(6-ylidene) = CC(CCCC=[*:3])(N[*:1])C(=O)[*:2]; X1 = CC(CCCCCCC=[*:3])(N[*:1])C(=O)[*:2]; R8 = C=CCCCCCC[C@@](C)(N)C(=O)O; S5 = C=CCCC[C@](C)(N)C(=O)O

What all share (type): cell-based
For one test, the system named is NCI-H510A. The settings on record: 72 h. As for the experimental part: NCI-510A, epithelial (small cell lung cancer, SCLC), ATCC-HBT-124; and Hepatocytes (normal liver), from a donor was provided by Foundation DTI-Donation & Transplantation Institute from surgical wastes and from organs not suitable for transplantation
(§1) Cell line MCF-7 was cultured in incubator under CO2 (6%) at 37° C. in DMEM high glucose (Dulbecco's Modified Eagle Solution, Gibco-BRL 31966-21) medium with 10% fetal bovine serum inactivated (FBS) (Gibco-BRL 10106-169). Cell lines HL-60, NCI-H524, NCI-H526, NCI-H69, NCI-H82, NCI-H187 and H5B were cultured in an incubator at 37° C. in RPMI-1640 (Sigma R8758) medium with 10% of fetal bovine serum inactivated (FBS) and 2 mM glutamine (Sigma G7513). Cell line NCI-H510A was cultured in incubator in F12K medium with 10% of fetal bovine serum inactivated (FBS). Cell line GBM-18 and GBM-27 were cultured in incubator under CO2 (6%) at 37° C. in complete medium (Neurobasal+B27+Glutamax+Growth factors).
(§2) During the amplification step and the assays, adherent cells were rinsed with DPBS (Dulbecco's Phosphate Buffered Saline, Sigma D1283) three times and afterward treated for 5 minutes with trypsin ([…]) (Gibco-BRL, 15400054) in solution of DPBS at 37° C., and, once detached, transferred in the culturing medium. No-adherent cells were centrifuged and transferred in the culturing medium. Cells were counted in a Neubauer chamber after labelling with Tripan-Blue.
(§3) MCF-7, NCI-H187, NCI-H69, NCI-H526 and H5B cells were seeded at a density of 5000 cells/well; NCI-H524 and NCI-H82 were seeded at a density of 2500 cells/well; HL-60 and NCI-H510A at 10000 cells/well in 100 μl of medium in 96 well plates. After 24 h, the compounds to be tested were added to calculate the dose/response curve at the starting concentration of 100 μM with serial dilutions (1:1). Controls were the untreated cells. Each experiment was performed in triplicate.
(§4) Cells were incubated during 72 h in incubator under CO2 atmosphere at 37° C. Cell viability was measured by means of MTT (3-(4,5-dimethylthiazol-2-yl)-2,5-diphenyltetrazolium bromide) assay, Alamar Blue® (Biosource DAL1100) and Hexosaminidase activity test, consecutively, following manufacturer instructions.
(§5) MTT: 1. Stock solution of MTT (475989 Calbiochem) was 5 mg/ml in PBS 1×. As negative control (experiment noise) 3 wells were treated with 20 μl/well of a solution of SDS 10% in H2O. The same control was used for Alamar Blue/Hexosaminidase. 10 μl/well of MTT solution were added and the plate was incubated for 3-4 hr. The medium was discarded and 100 μl of extracting buffer (PBS 1×, 15% SDS, 50% […] N,N-Dimethylformamide, pH 4,7) were added to each well. Plates were incubated for 16 h at room temperature under orbital shaking. Absorbance at 570 nm was finally measured.
(§6) Alamar Blue: 10 μl Alamar Blue solution was added to each well and the plates were incubated for […] in the incubator. Fluorescence ratio at 535/590 (excitation/emission) was measured in Cytofluor (Millipore) fluorimeter. Blank control was determined by lysis of untreated cells with con 2% of Triton X100, right before adding Alamar Blue solution.
(§7) Hexosaminidase activity test: after Alamar Blue lecture, medium was discarded and plates were rinsed once with PBS. 60 μl hexosaminidase substrate (p-nitrophenol-N-acetyl-beta-D-glucosamide 7.5 mM [Sigma N-9376], sodium citrate 0.1 M, pH 5.0, 0.25% Triton X-100) was added to each well and the plates were incubated at 37° C. for 2-5 h, according to the cell type (hexosaminidase activity changes according to the cell type). […] Blank control was the same as described before.
(§8) Data analysis was performed calculating the percentage of cell viability normalized vs. the values of negative control, which was considered equal to 100%. The dose/response curve was fitted through the sigmoidal equation dose-response (variable slope) and the EC50 values were calculated as follow: Y=Bottom+(Top−Bottom)/(1+10^{[(Log EC50−X)*HillSlope]},

For a further test, the system named is NCI-H82. The settings on record: 72 h. As for the experimental part: NCI-H82, epithelial (small cell lung cancer, SCLC), ATCC-CRL-5811;
as §1, §2, §3, §4, §5, §6, §7, §8

A further test deals with cancer cell lines. Nature of the test: Inhibition of cancer cell proliferation, general statements. As for the experimental part:
as §3, §4, §8

The test system of the next test is NCI-H187. The settings on record: 72 h. On the procedure:
NCI-H187, epithelial (small cell lung cancer, SCLC), ATCC-CRL-5804;
as §1, §2, §3, §4, §5, §6, §7, §8

Regarding `CC(C)C[C@@H]1NC(=O)[C@H](C)NC(=O)[C@H](C)NC(=O)[C@H](Cc2ccccc2)NC(=O)[C@](C)(NC(=O)[C@H](CC(C)C)NC(=O)[C@H](CC(N)=O)NC(=O)[C@@H](NC(=O)[C@H](CC(C)C)NC(=O)[C@H](CCCCN)NC(=O)[C@@H](NC(=O)[C@@H](N)CCCNC(=N)N)C(C)C)C(C)C)CCCCCCC=CCCC[C@@](C)(C(=O)N[C@H](C(=O)N2CCC[C@H]2C(N)=O)C(C)C)NC(=O)[C@H](CCC(=O)O)NC(=O)[C@H](CCCNC(=N)N)NC1=O` [IDP-H14-A09] (H-RVKLVNL[R8]FAALRE[S5]VP-NH2; staple 8-15; N-terminus assumed), the EC50 in the test on NCI-H510A, in the test with NCI-H82 and in the test with NCI-H187 was around 7.5 µM each time. Besides, in the test on cancer cell lines, the “inhibition of cancer cell proliferation (in words)” value (from here on “inhibition”) is recorded as “active”.
Take `CC(C)C[C@H](NC(=O)[C@H](CCCCN)NC(=O)[C@@H](NC(=O)[C@@H](N)CCCNC(=N)N)C(C)C)C(=O)N[C@H](C(=O)N[C@@H](CC(N)=O)C(=O)N[C@@H](CC(C)C)C(=O)NC1(C)CCCCCCC=CCCCC(C)(C(=O)N[C@H](C(=O)N2CCC[C@H]2C(N)=O)C(C)C)NC(=O)[C@H](C)NC(=O)[C@H](CCCNC(=N)N)NC(=O)[C@H](CC(C)C)NC(=O)[C@H]([C@@H](C)O)NC(=O)[C@H](C)NC(=O)[C@H](Cc2ccccc2)NC1=O)C(C)C` (stereo partly drawn) [IDP-H14-A12] (H-RVKLVNL[X1]FATLRA[ξαMeNle(6-ylidene)]VP-NH2; staple 8-15; N-terminus and C-terminus assumed): the concentration for a half-maximal effect (EC50) in the test on NCI-H510A, in the test with NCI-H82 and in the test on NCI-H187 was around 7.5 µM each time. Also, the “inhibition” value in the test with cancer cell lines is “active”.
`CC(C)C[C@H](NC(=O)[C@H](CCCCN)NC(=O)[C@@H](NC(=O)[C@H](CCCNC(=N)N)NC(=O)[C@H](CCCNC(=N)N)NC(=O)[C@H](CCCNC(=N)N)NC(=O)[C@H](CCCNC(=N)N)NC(=O)[C@H](CCCNC(=N)N)NC(=O)[C@H](CCCNC(=N)N)NC(=O)[C@H](CCCNC(=N)N)NC(=O)[C@@H](N)CCCNC(=N)N)C(C)C)C(=O)N[C@H](C(=O)N[C@@H](CC(N)=O)C(=O)N[C@@H](CC(C)C)C(=O)NC1(C)CCCCCCC=CCCCC(C)(C(=O)N[C@H](C(=O)N2CCC[C@H]2C(N)=O)C(C)C)NC(=O)[C@H](CCC(=O)O)NC(=O)[C@H](CCCNC(=N)N)NC(=O)[C@H](CC(C)C)NC(=O)[C@H]([C@@H](C)O)NC(=O)[C@H](C)NC(=O)[C@H](Cc2ccccc2)NC1=O)C(C)C` (stereo partly drawn) [IDP-H14-CPP] (H-RRRRRRRRVKLVNL[X1]FATLRE[ξαMeNle(6-ylidene)]VP-NH2; staple 15-22; N-terminus and C-terminus assumed): the EC50 with NCI-H510A, in the test with NCI-H82 and in the test on NCI-H187 was around 7.5 µM in each case.
In the case of `CC(C)C[C@H](NC(=O)[C@H](CCCCN)NC(=O)[C@@H](NC(=O)[C@@H](N)CCCNC(=N)N)C(C)C)C(=O)N[C@H](C(=O)N[C@@H](CC(N)=O)C(=O)N[C@@H](CC(C)C)C(=O)NC1(C)CCCCCCC=CCCCC(C)(C(=O)N[C@H](C(=O)N2CCC[C@H]2C(N)=O)C(C)C)NC(=O)[C@H](Cc2ccccc2)NC(=O)[C@H](CCCNC(=N)N)NC(=O)[C@H](CC(C)C)NC(=O)[C@H]([C@@H](C)O)NC(=O)[C@H](C)NC(=O)[C@H](Cc2ccccc2)NC1=O)C(C)C` (stereo partly drawn) [IDP-H14-F12] (H-RVKLVNL[X1]FATLRF[ξαMeNle(6-ylidene)]VP-NH2; staple 8-15; N-terminus and C-terminus assumed), the EC50 with NCI-H510A, in the test with NCI-H82 and in the test with NCI-H187 was around 7.5 µM in each case. Besides, the “inhibition” value in the test with cancer cell lines is “active”.
As for `CC(C)C[C@H](NC(=O)[C@H](CCCCN)NC(=O)[C@@H](NC(=O)[C@@H](N)CCCNC(=N)N)C(C)C)C(=O)N[C@H](C(=O)N[C@@H](CC(N)=O)C(=O)N[C@@H](CC(C)C)C(=O)NC1(C)CCCCCCC=CCCCC(C)(C(=O)N[C@H](C(=O)N[C@@H](Cc2ccccc2)C(N)=O)C(C)C)NC(=O)[C@H](CCC(=O)O)NC(=O)[C@H](CCCNC(=N)N)NC(=O)[C@H](CC(C)C)NC(=O)[C@H]([C@@H](C)O)NC(=O)[C@H](C)NC(=O)[C@H](Cc2ccccc2)NC1=O)C(C)C` (stereo partly drawn) [IDP-H14-F14] (H-RVKLVNL[X1]FATLRE[ξαMeNle(6-ylidene)]VF-NH2; staple 8-15; N-terminus and C-terminus assumed), the EC50 in the test with NCI-H510A, in the test on NCI-H82 and in the test with NCI-H187 was around 7.5 µM throughout. The “inhibition” value in the test on cancer cell lines was “active”.
On to `CC(C)C[C@@H]1NC(=O)[C@H](C)NC(=O)[C@H](CCC(N)=O)NC(=O)[C@H](Cc2ccccc2)NC(=O)C(C)(NC(=O)[C@H](CC(C)C)NC(=O)[C@H](CC(N)=O)NC(=O)[C@@H](NC(=O)[C@H](CC(C)C)NC(=O)[C@H](CCCCN)NC(=O)[C@@H](NC(=O)[C@@H](N)CCCNC(=N)N)C(C)C)C(C)C)CCCCCCC=CCCCC(C)(C(=O)N[C@H](C(=O)N2CCC[C@H]2C(N)=O)C(C)C)NC(=O)[C@H](CCC(N)=O)NC(=O)[C@H](CCCNC(=N)N)NC1=O` (stereo partly drawn) [IDP-H14-H2-01] (H-RVKLVNL[X1]FQALRQ[ξαMeNle(6-ylidene)]VP-NH2; staple 8-15; N-terminus and C-terminus assumed), for which the EC50 with NCI-H510A, in the test on NCI-H82 and in the test on NCI-H187 was around 7.5 µM throughout. The “inhibition” value with cancer cell lines is listed as “active”.
As for `CC(C)C[C@H](NC(=O)[C@H](CCCCN)NC(=O)[C@@H](NC(=O)[C@@H](N)CCCNC(=N)N)C(C)C)C(=O)N[C@H](C(=O)N[C@@H](CC(N)=O)C(=O)N[C@@H](CC(C)C)C(=O)N[C@]1(C)CCCCCCC=CCCC[C@@](C)(C(=O)N[C@H](C(=O)N2CCC[C@H]2C(N)=O)C(C)C)NC(=O)[C@H](CCC(=O)O)NC(=O)[C@H](CCCNC(=N)N)NC(=O)[C@H](CC(C)C)NC(=O)[C@H]([C@@H](C)O)NC(=O)[C@H](CCC(N)=O)NC(=O)[C@H](Cc2ccccc2)NC1=O)C(C)C` [IDP-H14-Q9] (H-RVKLVNL[R8]FQTLRE[S5]VP-NH2; staple 8-15; N-terminus assumed), in the test on cancer cell lines, the “inhibition” value is on record as “active”. Moreover, the EC50 (commonly the concentration at which the effect is half-maximal) with NCI-H187 is around 12.5 µM.
Regarding `CC(C)C[C@H](NC(=O)[C@H](CC(N)=O)NC(=O)[C@@H](NC(=O)[C@H](CC(C)C)NC(=O)[C@H](CCCCN)NC(=O)[C@@H](NC(=O)[C@H](CCCNC(=N)N)NC(=O)[C@H](CCCNC(=N)N)NC(=O)[C@H](CCCNC(=N)N)NC(=O)[C@H](CCCNC(=N)N)NC(=O)[C@H](CCCNC(=N)N)NC(=O)[C@H](CCCNC(=N)N)NC(=O)[C@H](CCCNC(=N)N)NC(=O)[C@@H](N)CCCNC(=N)N)C(C)C)C(C)C)C(=O)NCC(=O)N[C@@H](Cc1ccccc1)C(=O)N[C@@H](C)C(=O)N[C@H](C(=O)N[C@@H](CC(C)C)C(=O)N[C@@H](CCCNC(=N)N)C(=O)N[C@@H](CCC(=O)O)C(=O)N[C@@H](Cc1c[nH]cn1)C(=O)N[C@H](C(=O)N1CCC[C@H]1C(N)=O)C(C)C)[C@@H](C)O` [LH02] (H-RRRRRRRRVKLVNLGFATLREHVP-NH2; N-terminus and C-terminus assumed), the EC50 in the test with NCI-H82 was around 7 µM; in the test on NCI-H187, around 10 µM.
